The values that follow come from US8975235B2, “Lysophosphatidic acid receptor antagonists” (InterMune, Inc., priority 2011, dated 2015).

Common to all, as to assay type: cell-based
The target of one assay is T1, Human LPA3 (Homo sapiens, UniProt Q9UBY5).
T1 construct: The full-length cDNA fragment for human LPA3 is obtained by PCR from the vector; expressed in transfected cells; host or cells: CHO
T1 sequence (Q9UBY5 1-353): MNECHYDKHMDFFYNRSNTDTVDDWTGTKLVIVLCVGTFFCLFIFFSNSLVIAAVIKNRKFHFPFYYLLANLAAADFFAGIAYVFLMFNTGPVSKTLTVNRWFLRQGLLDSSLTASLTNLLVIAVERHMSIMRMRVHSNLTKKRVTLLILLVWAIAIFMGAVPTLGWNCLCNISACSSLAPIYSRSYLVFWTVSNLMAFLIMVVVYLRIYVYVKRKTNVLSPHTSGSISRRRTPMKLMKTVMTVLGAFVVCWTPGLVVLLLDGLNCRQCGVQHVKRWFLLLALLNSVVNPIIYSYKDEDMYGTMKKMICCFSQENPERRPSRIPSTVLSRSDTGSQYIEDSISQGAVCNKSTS
The assay is described as follows: LPA3 calcium flux assay. As to conditions: human LPA3 expressing CHO cells; stimulated with 10 nM LPA; read-out: Ca Flux LPA3 IC50. How it is done:
Establishment of a CHO Cell Line Stably Expressing Human LPA3
A vector containing the human LPA3 receptor cDNA is obtained from the Missouri S&T cDNA Resource Center (www.cdna.org). The full-length cDNA fragment for human LPA3 is obtained by PCR from the vector. The nucleotide sequence of the cloned human LPA3 is determined by sequencing and is confirmed to be identical to the published human LPA3 sequence (NCBI accession number NM_012152). The cDNA is cloned into the pcDNA5 pcDNA5/FRT expression plasmid and is transfected in CHO cells using lipofectamine 2000 (Invitrogen Corp., USA). Clones stably expressing human LPA3 are selected using hygromycin and identified as cells that show Ca-influx in response to LPA.
(§1) LPA1 and LPA3 Calcium Flux Assays
(§2) Human LPA1 or LPA3 expressing CHO cells were seeded at 20,000-45,000 cells per well in a 96-well poly-D-lysine coated plate one or two days before the assay. Prior to the assay, the cells were washed once with PBS and then cultured in serum-free media overnight. On the day of the assay, a calcium indicator dye (Calcium 4, Molecular Devices) in assay buffer (HBSS with Ca^2+ and Mg^2+ and containing 20 mM Hepes and 0.3% fatty-acid free human serum albumin) was added to each well and incubation continued for 1 hour at 37° C. 10 μl of test compounds in 2.5% DMSO were added to the cells and incubation continued at room temperature for 30 minutes. Cells were then stimulated by the addition of 10 nM LPA and intracellular Ca^2+ measured using the Flexstation 3 (Molecular Devices). IC50s were determined using Graphpad prism analysis of drug titration curves.
(Calcium assays in cells follow changes in intracellular calcium, usually with a dye or a luminescent sensor.)

Assay [1] deals with T2, Human LPA1 (Homo sapiens, UniProt Q92633). The assay is described as follows: Beta-Arrestin based assay for human LPA1R antagonists (PathHunter). Further details: host or cells: CHO. As to conditions: CHO cells stably expressing ProLink tagged human LPA1R; agonist LPA 0.5 micromolar. The method, boiled down: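 CHO cells stably expressing ProLink-tagged human LPA1R with β-arrestin–EA fusion, assayed by β-galactosidase complementation. Antagonists tested against 0.5 micromolar LPA ([…]), in quadruplicate. End-point luminescence fitted to a 4-parameter logistic to give IC50.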

Assay [2] has as its target T2, Human LPA1. The assay is described as follows: LPA1 calcium flux assay. Further details: the full-length cDNA for human LPA1 is obtained by PCR of the reverse transcription reaction; expressed in transfected cells; host or cells: CHO. As to conditions: human LPA1 expressing CHO cells; stimulated with 10 nM LPA; read-out: Ca Flux LPA1 IC50. The method, then: Establishment of a CHO Cell Line Stably Expressing Human LPA1
A 1.1 kb cDNA encoding the human LPA1 receptor is cloned from human lung. Human lung RNA (Clontech Laboratories, Inc. USA) is reverse transcribed using the RETROscript kit (Ambion, Inc.) and the full-length cDNA for human LPA1 is obtained by PCR of the reverse transcription reaction. The nucleotide sequence of the cloned human LPA1 is determined by sequencing and is confirmed to be identical to the published human LPA1 sequence (An et al. Biochem. Biophys. Res. Commun. 231:619 (1997). The cDNA is cloned into the pcDNA5 pcDNA5/FRT expression plasmid and is transfected in CHO cells using lipofectamine 2000 (Invitrogen Corp., USA). Clones stably expressing human LPA1 are selected using hygromycin and identified as cells that show Ca-influx in response to LPA.
as §1, §2

Bounds are passed on as bounds.

T2 sequence (Q92633 whole entry, the tested form may be a part): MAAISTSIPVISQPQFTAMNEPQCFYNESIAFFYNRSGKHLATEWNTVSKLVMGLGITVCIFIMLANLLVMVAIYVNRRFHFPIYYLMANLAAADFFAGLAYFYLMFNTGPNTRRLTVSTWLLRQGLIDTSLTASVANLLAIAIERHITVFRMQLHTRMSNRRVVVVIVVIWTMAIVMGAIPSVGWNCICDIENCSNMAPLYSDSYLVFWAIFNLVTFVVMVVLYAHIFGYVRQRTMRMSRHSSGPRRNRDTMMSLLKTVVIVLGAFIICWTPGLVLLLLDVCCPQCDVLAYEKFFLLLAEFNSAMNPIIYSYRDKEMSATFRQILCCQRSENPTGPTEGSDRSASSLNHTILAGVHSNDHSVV

As to `C[C@@H](OC(=O)Nc1c(-c2ccc(-c3ccc(C4(C(=O)O)CC4)cc3)cc2)cnn1C)c1ccccc1` [Compound 170], the IC50 on Human LPA3 was greater than 500 nM; at Human LPA1 [2] it was less than 50 nM. In addition, the EC50 on Human LPA1 [1] was less than 50 nM.

With `Cc1noc(-c2ccc(-c3ccc(C4(C(=O)O)CC4)cc3)cc2)c1NC(=O)O[C@H](C)c1ccccc1` [Compound 74], the IC50 was greater than 500 nM on Human LPA3 and less than 50 nM at Human LPA1 [2]. The same molecule yielded an EC50 at Human LPA1 [1] of less than 50 nM.

With `Cc1nnn(-c2ccc(-c3ccc(C4(C(=O)O)CC4)cc3)cc2)c1NC(=O)O[C@H](C)c1ccccc1` [Compound 65], the IC50 at Human LPA3 is greater than 500 nM; at Human LPA1 [2] it was less than 50 nM. The same molecule yielded an EC50 at Human LPA1 [1] of less than 50 nM.

As to `C[C@@H](OC(=O)Nc1c(-c2ccc(-c3ccc(C4(C(=O)O)CC4)cc3)cc2)oc2cnccc12)c1ccccc1Cl` [Compound 149], the values for the IC50 at Human LPA3 and on Human LPA1 [2] were greater than 500 nM and 50 to 500 nM, respectively. The EC50 at Human LPA1 [1] was less than 50 nM.

On to `C[C@@H](OC(=O)Nc1c(-c2ccc(-c3ccc(C4(C(=O)O)CC4)cc3)cc2)oc2ncccc12)c1ccccc1Cl` [Compound 153], for which the IC50 at Human LPA3 and at Human LPA1 [2] was greater than 500 nM in each case. Further, on Human LPA1 [1], the EC50 is less than 50 nM.

On to `Cc1noc(-c2ccc(-c3ccc(C(C(=O)O)c4ccccc4)cc3)cc2)c1NC(=O)O[C@H](C)c1ccccc1Cl` (single isomer, unassigned) [Compound 14], for which the IC50 on Human LPA3 is 50 to 500 nM; on Human LPA1 [2] it was less than 50 nM. Besides, the EC50 on Human LPA1 [1] is less than 50 nM.

For `Cc1nsc(-c2ccc(-c3ccc(CC(=O)O)cc3)cc2)c1NC(=O)O[C@H](C)c1ccccc1Cl` [Compound 20], the results for the IC50 at Human LPA3 and on Human LPA1 [2] were greater than 500 nM and less than 50 nM, respectively. Moreover, the EC50 at Human LPA1 [1] was 50 to 500 nM.

Turning to `C[C@@H](OC(=O)Nc1c(-c2ccc(-c3ccc(C4(C(=O)O)CC4)cc3)cc2)oc2ncccc12)c1ccccc1` [Compound 152], the IC50 at Human LPA3 and on Human LPA1 [2] was 50 to 500 nM each time. This molecule showed an EC50 on Human LPA1 [1] of less than 50 nM.

Take `Cc1noc(-c2ccc(-c3ccc(CC(=O)O)c4ccccc34)cc2)c1NC(=O)O[C@H](C)c1ccccc1Cl` [Compound 6]: the IC50 at Human LPA3 and on Human LPA1 [2] was 50 to 500 nM in each case. The EC50 on Human LPA1 [1] was less than 50 nM.

Regarding `Cc1nsc(-c2ccc(-c3ccc(C4(C(=O)O)CC4)cc3)cc2)c1NC(=O)OCc1ccccc1Cl` [Compound 46], the EC50 on Human LPA1 [1] was 50 to 500 nM. Further, the IC50 at Human LPA1 [2] lay within 50 to 500 nM.

Molecule `Cc1noc(-c2ccc3cc(C#CC4(C(=O)O)CC4)ccc3c2)c1NC(=O)O[C@H](C)c1ccccc1` [Compound 140] displayed an EC50 on Human LPA1 [1] of less than 50 nM. Moreover, the IC50 at Human LPA1 [2] was less than 50 nM.

On to `Cc1onc(-c2ccc(-c3ccc(C4(C(=O)O)CC4)cc3)cc2)c1NC(=O)O[C@H](C)c1ccccc1Cl` [Compound 30], for which, on Human LPA1 [1], the EC50 was less than 50 nM. The IC50 on Human LPA1 [2] is less than 50 nM.

For `C[C@@H](OC(=O)Nc1c(-c2ccc(-c3ccc(C4(C(=O)O)CC4)cc3)cc2)cnn1C)c1ccccc1Cl` [Compound 171], the IC50 at Human LPA3 is greater than 500 nM; at Human LPA1 [2], less than 50 nM. This molecule also returned an EC50 on Human LPA1 [1] of less than 50 nM.

In turn, `Cc1nsc(-c2cc(F)c(-c3ccc(C4(C(=O)O)CC4)cc3)cc2F)c1NC(=O)O[C@H](C)c1ccccc1` [Compound 182] returned an EC50 on Human LPA1 [1] of less than 50 nM. In addition, at Human LPA1 [2], the IC50 was less than 50 nM.

On to `Cc1noc(-c2ccc(-c3ccc(C4(C(=O)O)COC4)cc3)cc2)c1NC(=O)O[C@H](C)c1ccccc1` [Compound 80], for which the EC50 on Human LPA1 [1] is less than 50 nM. On Human LPA1 [2], the half-maximal inhibitory concentration (IC50) fell in the range of 50 to 500 nM.

On Human LPA1 [1], `Cc1noc(-c2ccc(-c3ccc(C4(C(=O)O)CCOCC4)cc3)cc2)c1NC(=O)O[C@H](C)c1ccccc1` [Compound 242] yielded an EC50 of less than 50 nM. Further, on Human LPA1 [2], the IC50 lay in the range of 50 to 500 nM.

As to `Cc1noc(-c2ccc(-c3ccc(CC(=O)O)cc3)cc2)c1NS(=O)(=O)c1ccccc1` [Compound 19], the EC50 on Human LPA1 [1] is greater than 500 nM. For the same molecule, the IC50 on Human LPA1 [2] is greater than 500 nM.

As usually defined, the IC50 is the concentration needed to halve the response being measured. Broadly, the EC50 is the concentration giving half of the maximal effect. Read a low EC50 as greater potency.
